In patent US10405547B2, “Substituted cyclic amides as herbicides” (FMC Corporation, priority 2015, dated 2019):

Key:
Assay type in all cases: in vivo
[1] = system: foxtail, giant (Setaria faberii); test: Test A postemergence, giant foxtail; details: visual injury, 0 to 100 scale (0 no effect, 100 complete control), approximately 10 days
Summary of the method: (§1)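 Injury scores (0 no effect, 100 complete control) were assigned by visually comparing treated with untreated plants after about 10 days of greenhouse growth. Seeds for soil treatment were sown into a loam and sand blend, while plants for foliar treatment grew in pots of that same blend.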

kochia (Kochia scoparia) [2] = test: Test A postemergence, kochia; details: visual injury, 0 to 100 scale (0 no effect, 100 complete control), approximately 10 days
Summary of the method: as §1

[3] = system: barnyardgrass (Echinochloa crus-galli); test: Test A preemergence, barnyardgrass; details: 0 to 100 scale (0 no effect, 100 complete control)
Summary of the method: as §1

[4] = system: blackgrass (Alopecurus myosuroides); test: Test A postemergence, blackgrass; details: visual injury, 0 to 100 scale (0 no effect, 100 complete control), approximately 10 days
Summary of the method: as §1

[5] = system: pigweed (Amaranthus retroflexus); test: Test A postemergence, pigweed; details: visual injury, 0 to 100 scale (0 no effect, 100 complete control), approximately 10 days
Summary of the method: as §1

[6] = system: galium (catchweed bedstraw, Galium aparine); test: Test A postemergence, galium; details: visual injury, 0 to 100 scale (0 no effect, 100 complete control), approximately 10 days
Summary of the method: as §1

[7] = system: sedge, umbrella (small-flower umbrella sedge, Cyperus difformis); test: Test B flooded paddy test, umbrella sedge; details: 250 g ai/ha, applied to paddy water, visual rating after 13 to 15 days, scale 0 (no effect) to 100 (complete control)
Description: (§2) At time of treatment, test pots were flooded to 3 cm above the soil surface, treated by application of test compounds directly to the paddy water, and then maintained at that water depth for the duration of the test. Treated plants and controls were maintained in a greenhouse for 13 to 15 days, after which time all species were compared to controls and visually evaluated. […] A dash (-) response means no test result.

[8] = system: barnyardgrass (Echinochloa crus-galli); test: Test B flooded paddy test, barnyardgrass; details: 250 g ai/ha, applied to paddy water, visual rating after 13 to 15 days, scale 0 (no effect) to 100 (complete control)
Description: as §2

corn (Zea mays) = test: Test A postemergence, corn; details: visual injury, 0 to 100 scale (0 no effect, 100 complete control), approximately 10 days
Summary of the method: as §1

[9] = system: wheat (Triticum aestivum); test: Test A postemergence, wheat; details: visual injury, 0 to 100 scale (0 no effect, 100 complete control), approximately 10 days
Summary of the method: as §1

rice (Oryza sativa) = test: Test B flooded paddy test, rice; details: 250 g ai/ha, applied to paddy water, visual rating after 13 to 15 days, scale 0 (no effect) to 100 (complete control)
Description: as §2

[10] = system: foxtail, giant (Setaria faberii); test: Test A preemergence, giant foxtail; details: 0 to 100 scale (0 no effect, 100 complete control)
Summary of the method: as §1

[11] = system: barnyardgrass (Echinochloa crus-galli); test: Test A postemergence, barnyardgrass; details: visual injury, 0 to 100 scale (0 no effect, 100 complete control), approximately 10 days
Summary of the method: as §1

[12] = system: ragweed (common ragweed, Ambrosia elatior); test: Test A postemergence, ragweed; details: visual injury, 0 to 100 scale (0 no effect, 100 complete control), approximately 10 days
Summary of the method: as §1

kochia (Kochia scoparia) [13] = test: Test A preemergence, kochia; details: 0 to 100 scale (0 no effect, 100 complete control)
Summary of the method: as §1

[14] = system: pigweed (Amaranthus retroflexus); test: Test A preemergence, pigweed; details: 0 to 100 scale (0 no effect, 100 complete control)
Summary of the method: as §1

[15] = system: ducksalad (Heteranthera limosa); test: Test B flooded paddy test, ducksalad; details: 250 g ai/ha, applied to paddy water, visual rating after 13 to 15 days, scale 0 (no effect) to 100 (complete control)
Description: as §2

[16] = system: ryegrass, Italian (Lolium multiflorum); test: Test A preemergence, Italian ryegrass; details: 0 to 100 scale (0 no effect, 100 complete control)
Summary of the method: as §1

[17] = system: ryegrass, Italian (Lolium multiflorum); test: Test A postemergence, Italian ryegrass; details: visual injury, 0 to 100 scale (0 no effect, 100 complete control), approximately 10 days
Summary of the method: as §1

[18] = system: ragweed (common ragweed, Ambrosia elatior); test: Test A preemergence, ragweed; details: 0 to 100 scale (0 no effect, 100 complete control)
Summary of the method: as §1

| Structure (SMILES) | Plant response rating, Foxtail, Giant ([1]; 125 g ai/ha) | Plant response rating, Foxtail, Giant ([1]; 500 g ai/ha) | Plant response rating, Kochia (kochia (Kochia scoparia) [2]; 125 g ai/ha) | Plant response rating, Kochia (kochia (Kochia scoparia) [2]; 500 g ai/ha) | Plant response rating, Barnyardgrass ([3]; 125 g ai/ha) | Plant response rating, Barnyardgrass ([3]; 500 g ai/ha) | Plant response rating, Blackgrass ([4]; 125 g ai/ha) | Plant response rating, Blackgrass ([4]; 500 g ai/ha) | Plant response rating, Pigweed ([5]; 125 g ai/ha) | Plant response rating, Pigweed ([5]; 500 g ai/ha) | Plant response rating, Galium ([6]; 125 g ai/ha) | Plant response rating, Galium ([6]; 500 g ai/ha) | Plant response rating, Sedge, Umbrella (Flood) [7] | Plant response rating, Barnyardgrass (Flood) [8] | Plant response rating, Corn (corn (Zea mays); 125 g ai/ha) | Plant response rating, Corn (corn (Zea mays); 500 g ai/ha) | Plant response rating, Wheat ([9]; 125 g ai/ha) | Plant response rating, Wheat ([9]; 500 g ai/ha) | Plant response rating, Rice (Flood) (rice (Oryza sativa)) | Plant response rating, Foxtail, Giant ([10]; 125 g ai/ha) | further results |
| --- | --- | --- | --- | --- | --- | --- | --- | --- | --- | --- | --- | --- | --- | --- | --- | --- | --- | --- | --- | --- | --- |
| O=C1NCC(c2cccc(Oc3ncc(F)cn3)c2)C1C(=O)Nc1ccccc1F (single isomer, unassigned) [Compound 39] | 70 | 80 | 0 | 0 | 70 | 90 | 0 | 40 | 0 | 20 | 0 | 30 | 0 | 0 | 30 | 70 | 0 | 60 | 0 | 90 | Plant response rating, Foxtail, Giant ([10]; 500 g ai/ha): 100; Plant response rating, Barnyardgrass ([11]; 125 g ai/ha): 70; Plant response rating, Barnyardgrass ([11]; 500 g ai/ha): 100; Plant response rating, Ragweed ([12]; 125 g ai/ha): 0; Plant response rating, Ragweed ([12]; 500 g ai/ha): 30; Plant response rating, Kochia (kochia (Kochia scoparia) [13]; 125 g ai/ha): 30; Plant response rating, Kochia (kochia (Kochia scoparia) [13]; 500 g ai/ha): 50; Plant response rating, Pigweed ([14]; 125 g ai/ha): 0; Plant response rating, Pigweed ([14]; 500 g ai/ha): 0; Plant response rating, Ducksalad (Flood) [15]: 75; Plant response rating, Ryegrass, Italian ([16]; 125 g ai/ha): 0; Plant response rating, Ryegrass, Italian ([16]; 500 g ai/ha): 60; Plant response rating, Ryegrass, Italian ([17]; 125 g ai/ha): 0; Plant response rating, Ryegrass, Italian ([17]; 500 g ai/ha): 20; Plant response rating, Ragweed ([18]; 125 g ai/ha): 0; Plant response rating, Ragweed ([18]; 500 g ai/ha): 50 |
| CN1CC(c2cccc(Oc3ccc(C(F)(F)F)cn3)c2)C(C(=O)Nc2ccccc2F)C1=O (single isomer, unassigned) [Compound 43] | 80 | 80 | 40 | 60 | 80 | 80 | 30 | 50 | 30 | 50 | 70 | 80 | 0 | 50 | 40 | 80 | 30 | 50 | 15 | 90 | Plant response rating, Foxtail, Giant ([10]; 500 g ai/ha): 90; Plant response rating, Barnyardgrass ([11]; 125 g ai/ha): 90; Plant response rating, Barnyardgrass ([11]; 500 g ai/ha): 90; Plant response rating, Ragweed ([12]; 125 g ai/ha): 0; Plant response rating, Ragweed ([12]; 500 g ai/ha): 0; Plant response rating, Kochia (kochia (Kochia scoparia) [13]; 125 g ai/ha): 30; Plant response rating, Kochia (kochia (Kochia scoparia) [13]; 500 g ai/ha): 30; Plant response rating, Pigweed ([14]; 125 g ai/ha): 40; Plant response rating, Pigweed ([14]; 500 g ai/ha): 80; Plant response rating, Ducksalad (Flood) [15]: 98; Plant response rating, Ryegrass, Italian ([16]; 125 g ai/ha): 30; Plant response rating, Ryegrass, Italian ([16]; 500 g ai/ha): 80; Plant response rating, Ryegrass, Italian ([17]; 125 g ai/ha): 0; Plant response rating, Ryegrass, Italian ([17]; 500 g ai/ha): 30; Plant response rating, Ragweed ([18]; 125 g ai/ha): 0; Plant response rating, Ragweed ([18]; 500 g ai/ha): 80 |
| CN1CC(c2cccc(Oc3ccc(C(F)(F)F)cn3)c2)C(C(=O)Nc2cccc(F)c2F)C1=O (single isomer, unassigned) [Compound 44] | 70 | 80 | 30 | 60 | 80 | 80 | 30 | 50 | 50 | 80 | 70 | 80 | 0 | 40 | 40 | 80 | 0 | 50 | 0 | 90 | Plant response rating, Foxtail, Giant ([10]; 500 g ai/ha): 90; Plant response rating, Barnyardgrass ([11]; 125 g ai/ha): 90; Plant response rating, Barnyardgrass ([11]; 500 g ai/ha): 90; Plant response rating, Ragweed ([12]; 125 g ai/ha): 0; Plant response rating, Ragweed ([12]; 500 g ai/ha): 0; Plant response rating, Kochia (kochia (Kochia scoparia) [13]; 125 g ai/ha): 0; Plant response rating, Kochia (kochia (Kochia scoparia) [13]; 500 g ai/ha): 0; Plant response rating, Pigweed ([14]; 125 g ai/ha): 30; Plant response rating, Pigweed ([14]; 500 g ai/ha): 80; Plant response rating, Ducksalad (Flood) [15]: 90; Plant response rating, Ryegrass, Italian ([16]; 125 g ai/ha): 30; Plant response rating, Ryegrass, Italian ([16]; 500 g ai/ha): 90; Plant response rating, Ryegrass, Italian ([17]; 125 g ai/ha): 0; Plant response rating, Ryegrass, Italian ([17]; 500 g ai/ha): 30; Plant response rating, Ragweed ([18]; 125 g ai/ha): 0; Plant response rating, Ragweed ([18]; 500 g ai/ha): 60 |
| CN1CC(c2cccc(Oc3ccc(F)cc3)c2)C(C(=O)Nc2ccccc2F)C1=O (single isomer, unassigned) [Compound 45] | 80 | 80 | 40 | 60 | 80 | 80 | 30 | 30 | 30 | 60 | 60 | 60 | 0 | 40 | 0 | 50 | 0 | 20 | 15 | 90 | Plant response rating, Foxtail, Giant ([10]; 500 g ai/ha): 90; Plant response rating, Barnyardgrass ([11]; 125 g ai/ha): 90; Plant response rating, Barnyardgrass ([11]; 500 g ai/ha): 90; Plant response rating, Ragweed ([12]; 125 g ai/ha): 0; Plant response rating, Ragweed ([12]; 500 g ai/ha): 0; Plant response rating, Kochia (kochia (Kochia scoparia) [13]; 125 g ai/ha): 0; Plant response rating, Kochia (kochia (Kochia scoparia) [13]; 500 g ai/ha): 20; Plant response rating, Pigweed ([14]; 125 g ai/ha): 40; Plant response rating, Pigweed ([14]; 500 g ai/ha): 70; Plant response rating, Ducksalad (Flood) [15]: 70; Plant response rating, Ryegrass, Italian ([16]; 125 g ai/ha): 30; Plant response rating, Ryegrass, Italian ([16]; 500 g ai/ha): 80; Plant response rating, Ryegrass, Italian ([17]; 125 g ai/ha): 0; Plant response rating, Ryegrass, Italian ([17]; 500 g ai/ha): 30; Plant response rating, Ragweed ([18]; 125 g ai/ha): 0; Plant response rating, Ragweed ([18]; 500 g ai/ha): 30 |
| CN1CC(c2cccc(Oc3ccc(F)cc3)c2)C(C(=O)Nc2cccc(F)c2F)C1=O (single isomer, unassigned) [Compound 46] | 70 | 80 | 40 | 60 | 70 | 80 | 0 | 30 | 50 | 70 | 60 | 70 | 0 | 0 | 40 | 50 | 0 | 20 | 0 | 90 | Plant response rating, Foxtail, Giant ([10]; 500 g ai/ha): 90; Plant response rating, Barnyardgrass ([11]; 125 g ai/ha): 90; Plant response rating, Barnyardgrass ([11]; 500 g ai/ha): 90; Plant response rating, Ragweed ([12]; 125 g ai/ha): 0; Plant response rating, Ragweed ([12]; 500 g ai/ha): 0; Plant response rating, Kochia (kochia (Kochia scoparia) [13]; 125 g ai/ha): 0; Plant response rating, Kochia (kochia (Kochia scoparia) [13]; 500 g ai/ha): 20; Plant response rating, Pigweed ([14]; 125 g ai/ha): 40; Plant response rating, Pigweed ([14]; 500 g ai/ha): 70; Plant response rating, Ducksalad (Flood) [15]: 30; Plant response rating, Ryegrass, Italian ([16]; 125 g ai/ha): 20; Plant response rating, Ryegrass, Italian ([16]; 500 g ai/ha): 80; Plant response rating, Ryegrass, Italian ([17]; 125 g ai/ha): 0; Plant response rating, Ryegrass, Italian ([17]; 500 g ai/ha): 30; Plant response rating, Ragweed ([18]; 125 g ai/ha): 0; Plant response rating, Ragweed ([18]; 500 g ai/ha): 30 |
